Patent US20190290710A1, “USE OF GLUC[…] TO ENHANCE RECOMBINANT ADENO-[…] YIELD” (priority 2016, published 2019)
Like-named read-outs stand apart in the source and are kept apart here.

Legend:
[1] = test system: HeLa host cell line; assay type: cell-based
Description: A number of cell culture additives including metals, trace supplements, salts, and others, were tested for their ability to increase production of recombinant adeno-associated virus vector (rAAV) by a HeLa host cell line.

[2] = test system: HeLa host cell line; test: rAAV yield by qPCR, HeLa host cell line in shaker flasks, glucocorticoid analogs; assay type: cell-based; details: shaker flask, 0.1 and 1 μM, 4 days, FIG. 2
Description: FIG. 2 is a bar graph depicting the effect of glucocorticoid analogs on rAAV production from a HeLa producer cell line cultured in a shaker flask. Hydrocortisone (hydr), predinosolone (pred) and dexamethasone (dex) were added at the indicated concentrations and after 4 days rAAV yield (GC/ml) was measured by qPCR. Each value represents the mean of two independent experiments.
DNase-resistant particles (DRP) can be quantified by real-time quantitative polymerase chain reaction (qPCR) (DRP-qPCR) in a thermocycler (for example, an iCycler iQ 96-well block format thermocycler (Bio-Rad, Hercules, Calif.)). Samples containing rAAV particles are incubated in the presence of DNase I (100 U/ml; Promega, Madison, Wis.) at 37° C. for 60 min, followed by proteinase K (Invitrogen, Carlsbad, Calif.) digestion (10 U/ml) at 50° C. for 60 min, and then denatured at 95° C. for 30 min. The primer-probe set used should be specific to a non-native portion of the rAAV vector genome, for example, the poly(A) sequence of the protein of interest. […]
Stock solutions of dexamethasone (dex), prednisolone (pred), and hydrocortisone (hydr) dissolved in DMSO were added to the cell culture to final concentrations of 0.1 and 1 μM. After 4 days, rAAV yield was determined by measuring both the secreted (extracellular) and total rAAV in the cell culture harvest by qPCR.

`[Ca+2]` [calcium] was tested, and the media precipitation ([1]; calcium concentrations higher than 0.19 g/L) was “causing media precipitation” and the “impact on rAAV yield” value ([1]; supplementation with 0.19 g/L of calcium) was “minimal impact”.
With `NCCCCN` [putrescine] the “effect on rAAV yield” value [1] was “negative effect”.
For `[Fe]` [iron], the “impact on rAAV yield” value ([1]; iron concentration increased from 0.1 mg/L to 10 mg/L) was “No or minimal impact”.
With `C[C@]12C=CC(=O)C=C1CC[C@@H]1[C@@H]2[C@@H](O)C[C@@]2(C)[C@H]1CC[C@]2(O)C(=O)CO` [prednisolone] the “rAAV yield (extracellular and total)” value [2] was “increased rAAV yield”.
In the case of `C[C@]12CCC(=O)C=C1CC[C@@H]1[C@@H]2[C@@H](O)C[C@@]2(C)[C@H]1CC[C@]2(O)C(=O)CO` [hydrocortisone], the “rAAV yield (extracellular and total)” value [2] is reported as “increased rAAV yield”.
In the case of `NCCCNCCCCNCCCN` [spermine], the “effect on rAAV yield” value [1] is reported as “negative effect”.
`[Mg+2]` [magnesium] was tested, and the “impact on rAAV yield” value ([1]; magnesium concentration increased from 1 mg/L to 30 mg/L) was “slightly negative impact”.
`[Cu]` [copper] was tested, and the “impact on rAAV yield” value ([1]; copper concentration increased from 0.1 μM to 10 μM) was “No or minimal impact”.
